Source: article PMC10528385 (Antiviral research, 2023)

Biological target: NA of A/Washington/01/2007 A(H3N2), WT (Influenza A virus, UniProt A7UPN3)
Assay: biochemical

## CC(=O)N[C@H]1[C@H]([C@H](O)[C@H](O)CO)OC(C(=O)O)=C[C@@H]1N=C(N)N [Zanamivir, zanamivir]
  IC50: 1.1 ± 0.1 nM
